How the values were obtained:
20S proteasome = assay: Proteolytic cleavage pattern by RP-HPLC; assay type: biochemical, human; details: substrate 3.1 × 10^−6 M, 20S proteasome 1.07 × 10^−9 M, one hour
Protocol: For each sample of the diluted substrate (concentration; 3.1 × 10^−6 M), an appropriate amount of proteasome (1.07 × 10^−9 M) was added, and the solution was incubated for 5, 30, and 60 min. The proteolytic reaction was monitored by RP-HPLC.

[1] = test system: 20S proteasome in human urine; assay: Proteasome activity in human urine with substrate 1; assay type: biochemical; details: for proteasome activity (cleavage of substrate 1): 80 µL urine, substrate 1.34 × 10^−5 M, 320/450 nm, Mann–Whitney p < 0.0001
Protocol: All urine samples were purchased from St. Vincent de Paul Hospital in Gdynia, Poland (contract no. JN/777/R720/08.11.17). All methods and procedures were performed in accordance with this contract agreement. Participants were informed about the study and sample collection, and their written consent was collected. […] Therefore, the samples were considered unnamed. The samples of human urine were taken during mid-urination and kept for 48 h at −80 °C until required. All samples used for assay development were taken from healthy volunteers (n = 5), and oncological samples were obtained from patients diagnosed with bladder cancer (n = 8).
The urine samples were thawed at room temperature, gently vortexed, and briefly centrifuged (<20 s) to collect the sample at the bottom of the tube. A total of 80 μL urine was transferred to a 96-well microplate and mixed with assay buffer and substrate 1. Proteasome activity was assayed as described earlier. Briefly, 80 µL of urine from healthy volunteers, urine from patients diagnosed with bladder cancer, and bladder cancer urine supplemented by the inhibitor PR671A were mixed with 200 µL of the assayed buffer and 20 µL of the substrate at a concentration of 1.34 × 10^−5 M, and the fluorescence was quantified. An excitation wavelength equal to 320 nm and an emission wavelength of 450 nm were used.
The resulting data were analyzed using Graphpad Prism version 6.0 software (GraphPad Software Inc., La Jolla, CA, USA). All fluorescent measurements were performed in triplicate and represented by the mean ± standard deviation (SD). A two-tailed Mann–Whitney test was applied for the statistical analysis (p < 0.0001).

Q: Which cleavage products (20S proteasome) does the source give for “ABZ–Dap(O2(Cbz))–Dap(GO1)–Dap(O2(Cbz))–Arg–ANB–NH2 [substrate 1]” here?
A: The cleavage products was “two products with retention times corresponding to ABZ–Dap(O2(Cbz))–Dap(GO1)–Dap(O2(Cbz))–Arg–OH (2) (tR = 18.24) and ABZ–NH2 (tR = 7.89)”.

Q: And the “fluorescence (in words)” value ([1]; bladder cancer urine samples, n = 8)?
A: The value was “fluorescence increase that was observed in all samples”.

Q: What about the “proteasome activity (cleavage of substrate 1)” value ([1]; bladder cancer urine, n = 8, mean ± SD) of the same substance?
A: The value was 48.4 ± 28.1.

Q: What about the “fluorescence (in words)” value ([1]; healthy urine samples, n = 5) of the same substance?
A: Its value is “insignificant background levels of fluorescence”.

Q: What about the “proteasome activity (cleavage of substrate 1)” value ([1]; healthy urine, n = 5, mean ± SD) of the same substance?
A: The value was 0.1 ± 0.04.

Source: paper PMC7177456, “A Peptidomimetic Fluorescent Probe to Detect the Trypsin β2 Subunit of the Human 20S Proteasome” (International Journal of Molecular Sciences, 2020)
